Measured values: US4260682A, “High sensitivity assays for angiotensin converting enzyme” (priority 1979, dated 1981)
Peptide text beside a SMILES is read from it. * marks the point of attachment. Bz = O=C(c1ccccc1)*

Molecular target: T1, Guinea pig urinary ACE (Cavia porcellus, UniProt H0UWL7)
T1 sequence (H0UWL7 33-1302): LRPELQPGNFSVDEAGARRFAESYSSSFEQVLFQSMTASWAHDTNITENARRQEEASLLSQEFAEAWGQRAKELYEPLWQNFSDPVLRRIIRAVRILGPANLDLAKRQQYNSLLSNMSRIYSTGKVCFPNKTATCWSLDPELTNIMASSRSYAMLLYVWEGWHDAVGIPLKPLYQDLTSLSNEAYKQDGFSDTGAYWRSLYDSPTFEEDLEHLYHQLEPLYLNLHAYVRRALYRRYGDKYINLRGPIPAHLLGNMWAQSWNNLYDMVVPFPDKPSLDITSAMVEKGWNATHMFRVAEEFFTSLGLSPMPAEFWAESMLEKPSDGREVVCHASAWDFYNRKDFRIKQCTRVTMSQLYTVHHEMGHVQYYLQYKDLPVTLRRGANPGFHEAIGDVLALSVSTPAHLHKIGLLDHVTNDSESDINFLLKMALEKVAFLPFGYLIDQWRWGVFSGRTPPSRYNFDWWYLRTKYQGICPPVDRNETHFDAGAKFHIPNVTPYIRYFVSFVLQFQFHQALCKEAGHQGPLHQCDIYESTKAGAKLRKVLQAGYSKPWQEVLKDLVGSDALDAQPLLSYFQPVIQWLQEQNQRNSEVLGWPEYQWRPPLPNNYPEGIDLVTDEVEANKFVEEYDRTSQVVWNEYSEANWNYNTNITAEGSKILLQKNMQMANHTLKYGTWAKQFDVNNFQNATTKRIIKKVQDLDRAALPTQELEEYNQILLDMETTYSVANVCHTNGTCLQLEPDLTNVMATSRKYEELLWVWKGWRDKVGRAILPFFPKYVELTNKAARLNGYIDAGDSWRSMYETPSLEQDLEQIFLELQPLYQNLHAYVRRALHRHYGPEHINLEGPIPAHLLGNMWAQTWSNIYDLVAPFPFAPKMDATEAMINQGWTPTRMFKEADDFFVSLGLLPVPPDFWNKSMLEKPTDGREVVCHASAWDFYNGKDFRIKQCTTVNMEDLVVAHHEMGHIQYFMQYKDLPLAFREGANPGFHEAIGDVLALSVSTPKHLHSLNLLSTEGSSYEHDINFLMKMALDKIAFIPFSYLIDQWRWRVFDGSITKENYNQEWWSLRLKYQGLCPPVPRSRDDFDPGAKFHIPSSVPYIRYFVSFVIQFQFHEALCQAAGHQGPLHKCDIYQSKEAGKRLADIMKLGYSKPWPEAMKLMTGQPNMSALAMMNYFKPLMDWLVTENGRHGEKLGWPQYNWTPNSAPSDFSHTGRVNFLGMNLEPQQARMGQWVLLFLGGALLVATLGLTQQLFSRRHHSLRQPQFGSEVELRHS
Experiment: Sulfate and chloride effects on ACE catalysed substrate hydrolysis
Type: biochemical
Details: 0.05M Hepes

CC(C)C[C@H](NC(=O)[C@H](Cc1c[nH]cn1)NC(=O)CNC(=O)c1ccccc1)C(=O)O [HipHisLeu] (Bz-Gly-His-Leu-OH)
Reaction Velocity, Per Cent of Substrate Hydrolyzed in 10 minutes (pH 8.0, 0.0M NaCl, Na2 SO4 0 M): 0 Per Cent
Reaction Velocity, Per Cent of Substrate Hydrolyzed in 10 minutes (pH 8.0, 0.0M NaCl, Na2 SO4 0.1 M): 0 Per Cent
Reaction Velocity, Per Cent of Substrate Hydrolyzed in 10 minutes (pH 8.0, 0.0M NaCl, Na2 SO4 0.2 M): 0 Per Cent
Reaction Velocity, Per Cent of Substrate Hydrolyzed in 10 minutes (pH 8.0, 0.0M NaCl, Na2 SO4 0.3 M): 0 Per Cent
Reaction Velocity, Per Cent of Substrate Hydrolyzed in 10 minutes (pH 8.0, 0.0M NaCl, Na2 SO4 0.4 M): 0.1 Per Cent
Reaction Velocity, Per Cent of Substrate Hydrolyzed in 10 minutes (pH 8.0, 0.0M NaCl, Na2 SO4 0.5 M): 0.1 Per Cent
Reaction Velocity, Per Cent of Substrate Hydrolyzed in 10 minutes (pH 8.0, 0.0M NaCl, Na2 SO4 0.6 M): 0.25 Per Cent
Reaction Velocity, Per Cent of Substrate Hydrolyzed in 10 minutes (pH 8.0, 0.0M NaCl, Na2 SO4 0.7 M): 0.25 Per Cent
Reaction Velocity, Per Cent of Substrate Hydrolyzed in 10 minutes (pH 8.0, 0.0M NaCl, Na2 SO4 0.75 M): 0.25 Per Cent
Reaction Velocity, Per Cent of Substrate Hydrolyzed in 10 minutes (pH 8.0, 0.0M NaCl, Na2 SO4 0.8 M): 0.25 Per Cent
Reaction Velocity, Per Cent of Substrate Hydrolyzed in 10 minutes (pH 8.0, 0.0M NaCl, Na2 SO4 0.9 M): 0.7 Per Cent
Reaction Velocity, Per Cent of Substrate Hydrolyzed in 10 minutes (pH 8.0, 0.0M NaCl, Na2 SO4 1.2 M): 3.9 Per Cent
Reaction Velocity, Per Cent of Substrate Hydrolyzed in 10 minutes (pH 8.0, 0.1M NaCl, Na2 SO4 0 M): 0.3 Per Cent
Reaction Velocity, Per Cent of Substrate Hydrolyzed in 10 minutes (pH 8.0, 0.1M NaCl, Na2 SO4 0.4 M): 4.1 Per Cent
Reaction Velocity, Per Cent of Substrate Hydrolyzed in 10 minutes (pH 8.0, 0.1M NaCl, Na2 SO4 0.6 M): 8.3 Per Cent
Reaction Velocity, Per Cent of Substrate Hydrolyzed in 10 minutes (pH 8.0, 0.1M NaCl, Na2 SO4 0.75 M): 12.05 Per Cent
Reaction Velocity, Per Cent of Substrate Hydrolyzed in 10 minutes (pH 8.0, 0.1M NaCl, Na2 SO4 0.9 M): 12.25 Per Cent
